Source: patent US7989632B2, “Crystalline forms of solvated ilaprazole” (Il Yang Pharmaceutical Company, Ltd., priority 2006, dated 2011)

Key:
[1] = Dynamic Vapor Sorption/Desorption (DVS) isotherm; type: physicochemical; conditions: for DVS weight loss at 5% RH: samples not dried prior to analysis; for DVS weight loss from 95 to 5% RH: desorption
Experimental: Dynamic Vapor Sorption/Desorption (DVS): Data were collected on a VTI SGA-100 moisture balance system. For sorption isotherms, a sorption range of 5 to 95% relative humidity (RH) and a desorption range of 95 to 5% RH in 10% RH increments were used for analysis. The samples were not dried prior to analysis. Equilibrium criteria used for analysis were less than 0.0100% weight change in 5 minutes with a maximum equilibration time of 3 hours if the weight criterion was not met. Data were not corrected for the initial moisture content of the samples.

[2] = tested on: gastric-acid related disorders; acid-related gastric and duodenal ulcers; assay: Phase 2 clinical studies conducted with ilaprazole; type: in vivo, humans; conditions: at the doses studied
gastric acid = assay: Phase 1 clinical studies conducted with ilaprazole; type: in vivo, humans; conditions: Phase 1, at the doses studied

Row | SMILES | DVS weight loss at 5% RH [1] [%] | DVS weight loss from 95 to 5% RH [1] [%] | DVS weight gain from 5 to 95% RH ([1]; sorption, 5 to 95% RH) [%] | DVS weight loss from 5 to 95% RH ([1]; sorption, 5 to 95% RH) [%] | healing of ulcers ([2]; Phase 2, acid-related gastric and duodenal ulcers) | symptomatic relief ([2]; Phase 2, patients with gastric-acid related disorders) | suppression of gastric acid (gastric acid)
1 | C1CCOC1.COc1ccnc(C[S+]([O-])c2nc3cc(-n4cccc4)ccc3[nH]2)c1C.COc1ccnc(C[S+]([O-])c2nc3cc(-n4cccc4)ccc3[nH]2)c1C (racemic) [Form D, crystalline THF/racemic ilaprazole hemisolvate] | ~0.6 | ~1.2 | ~0.6 |  |  |  | 
2 | C1COCCO1.COc1ccnc(C[S+]([O-])c2nc3cc(-n4cccc4)ccc3[nH]2)c1C.COc1ccnc(C[S+]([O-])c2nc3cc(-n4cccc4)ccc3[nH]2)c1C (racemic) [Form C, crystalline 1,4-dioxane/racemic ilaprazole hemi-solvate] | ~1.2 | ~4.1 |  | ~1.1 |  |  | 
3 | COc1ccnc(C[S+]([O-])c2nc3cc(-n4cccc4)ccc3[nH]2)c1C (stereo not drawn) [ilaprazole, 2[[(4-methoxy-3-methyl-2-pyridinyl)-methyl]sulfinyl]-5-(1H-pyrrol-1-yl) 1H-Benzimidazole] |  |  |  |  | promoted rapid healing | provided symptomatic relief | suppression of gastric acid occurs over a 24-hour period
